Measured values reported in patent EP0445920A2, “Use of ethoxy phenoxy acetic acid derivatives against diabetes” (IMPERIAL CHEMICAL INDUSTRIES PLC, priority 1990, dated 1991).

System: oral glucose tolerance in rats
Assay: Oral glucose tolerance test in fasted rats (blood glucose by glucose oxidase method)
Type: in vivo, Male, Alderley Park, Wistar rats
Details: rats fasted 24 hours, Glibenclamide 5 mg/kg p.o. at -2.0 h, Compound A 0.1 mg/kg p.o. at -0.5 h, M ± SEM, eight rats/group; for Glucose levels, time relative to oral glucose (minutes) 0: 0 min (before oral glucose load 1g/kg); for Glucose levels, time relative to oral glucose (minutes) 20: 20 min after oral glucose load 1g/kg; for Glucose levels, time relative to oral glucose (minutes) 60: 60 min after oral glucose load 1g/kg; for Glucose levels, time relative to oral glucose (minutes) 120: 120 min after oral glucose load 1g/kg
Method: Effects of (S)-4-[2-(2-hydroxy-3-phenoxypropylamino)ethoxy]-N-(2-methoxyethyl)phenoxyacetamide on glibenclamide induced improvements in oral glucose tolerance in rats Glibenclamide is a sulphonylurea commonly used for the treatment of non-insulin dependent diabetes. The effects of (S)-4-[2-(2-hydroxy-3-phenoxypropylamino)ethoxy]-N-(2-methoxyethyl) phenoxyacetamide (compound A) were assessed on glibenclamide induced improvements in oral glucose tolerance. Male, Alderley Park, Wistar rats (weight range 125-150 g) were caged in groups of four in a room with normal lighting, at a temperature of 22°C. The animals were allowed free access to water and chow during an acclimatisation period of five days. At the end of this period the rats were fasted for 24 hours. After fasting a group of 8 rats was anaesthetised and a cardiac blood sample taken. The remaining rats were dosed orally according to the schedule below: [table] Glibenclamide and Compound A were dissolved in an aqueous 0.025% solution of polysorbate. The dosage volume was 0.5 ml/100 g body weight. Thirty minutes after dosing according to the schedule above a further eight rats from each group were bled. The remaining rats were then given an oral glucose load (1g/kg) dosed as a 20% solution of D-glucose (0.5 ml/100 g). Groups of eight rats for each treatment were then anaesthetised and bled 20, 60 and 120 minutes after the glucose load. Glucose levels were assayed using a glucose oxidase method on a KDK glucose analyser (Clandon).

Row | SMILES | Glucose levels, time relative to oral glucose (minutes) 0 | Glucose levels, time relative to oral glucose (minutes) 20 | Glucose levels, time relative to oral glucose (minutes) 60 | Glucose levels, time relative to oral glucose (minutes) 120
1 | COCCNC(=O)COc1ccc(OCCNC[C@H](O)COc2ccccc2)cc1 [Compound A, (S)-4-[2-(2-hydroxy-3-phenoxypropylamino)ethoxy]-N-(2-methoxyethyl) phenoxyacetamide] | 2.77 ± 0.10 mmol | 6.16 ± 0.23 mmol | 5.37 ± 0.28 mmol | 4.99 ± 0.20 mmol
2 | COc1ccc(Cl)cc1C(=O)NCCc1ccc(S(=O)(=O)NC(=O)NC2CCCCC2)cc1 [Glibenclamide] | 3.16 ± 0.13 mmol | 7.77 ± 0.45 mmol | 4.4 ± 0.38 mmol | 3.67 ± 0.27 mmol
